Source: PubChem BioAssay AID330 (DTP/NCI, 2004)
“And” between values parts separate entries of the source, which are not always exact repeats. Identical values can stand only once. Toxic doses and inconclusive results are not listed. How the source made its calls: active means survival T/C of 150% or more; inactive means T/C below 125% in these data.

System: P388 leukemia ip, CD2F1 mice, survival T/C
Assay: NCI In Vivo Anticancer Drug Screen. Data for tumor model P388 Leukemia (intraperitoneal) in CD2F1 (CDF1) mice
Details: endpoint: median survival time, higher = longer survival
How it was run: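 Mice carrying the transplanted tumor received test compound or vehicle. Survival was recorded in each group, and the value is the treated-group measurement divided by that of the vehicle-treated control group.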

[1] = dose: 50.0 mg/kg/injection, schedule: Q01DX005 (ip), vehicle: saline
[2] = dose: 100.0 mg/kg/injection, schedule: Q01DX005 (ip), vehicle: saline
[3] = dose: 200.0 mg/kg/injection, schedule: Q01DX005 (ip), vehicle: saline
[4] = dose: 6.25 mg/kg/injection, schedule: Q01DX009 (ip), vehicle: saline with Tween-80
[5] = dose: 12.5 mg/kg/injection, schedule: Q01DX009 (ip), vehicle: saline with Tween-80
[6] = dose: 25.0 mg/kg/injection, schedule: Q01DX009 (ip), vehicle: saline with Tween-80
[7] = dose: 50.0 mg/kg/injection, schedule: Q01DX009 (ip), vehicle: saline with Tween-80
[8] = dose: 100.0 mg/kg/injection, schedule: Q01DX009 (ip), vehicle: saline with Tween-80
[9] = dose: 200.0 mg/kg/injection, schedule: Q01DX009 (ip), vehicle: saline with Tween-80
[10] = dose: 50.0 mg/kg/injection, schedule: Q01DX005 (ip), vehicle: saline with Tween-80
[11] = dose: 100.0 mg/kg/injection, schedule: Q01DX005 (ip), vehicle: saline with Tween-80
[12] = dose: 200.0 mg/kg/injection, schedule: Q01DX005 (ip), vehicle: saline with Tween-80
[13] = dose: 50.0 mg/kg/injection, schedule: Q01DX009 (ip), vehicle: saline
[14] = dose: 100.0 mg/kg/injection, schedule: Q01DX009 (ip), vehicle: saline
[15] = dose: 200.0 mg/kg/injection, schedule: Q01DX009 (ip), vehicle: saline
[16] = dose: 50.0 mg/kg/injection, schedule: Q01DX005 (ip), vehicle: Klucel (hydroxypropylcellulose) (HPC)
[17] = dose: 100.0 mg/kg/injection, schedule: Q01DX005 (ip), vehicle: Klucel (hydroxypropylcellulose) (HPC)
[18] = dose: 200.0 mg/kg/injection, schedule: Q01DX005 (ip), vehicle: Klucel (hydroxypropylcellulose) (HPC)
[19] = dose: 60.0 mg/kg/injection, schedule: Q01DX005 (ip), vehicle: Klucel (hydroxypropylcellulose) (HPC)
[20] = dose: 120.0 mg/kg/injection, schedule: Q01DX005 (ip), vehicle: Klucel (hydroxypropylcellulose) (HPC)
[21] = dose: 50.0 mg/kg/injection, schedule: Q01DX009 (ip), vehicle: Klucel (hydroxypropylcellulose) (HPC)
[22] = dose: 100.0 mg/kg/injection, schedule: Q01DX009 (ip), vehicle: Klucel (hydroxypropylcellulose) (HPC)
[23] = dose: 25.0 mg/kg/injection, schedule: Q01DX009 (ip), vehicle: other

Measured: T/C

O=c1[nH]cn[nH]1
inactive: [1] 101 % of control | [2] 98 % of control | [3] 95 % of control

O=C1C(=O)c2ccccc2C(O)=C1CCCc1ccc(C2CCCCC2)cc1
inactive: dose: 3.12 mg/kg/injection, schedule: Q01DX009 (ip), vehicle: saline with Tween-80 112 % of control | [4] 101 % of control | [5] 94 % of control | [6] 101 % of control | [7] 94 % of control | [8] 93 % of control | [9] 104 % of control

COc1cc(CN2CCCCC2)cc2cc(C(=O)O)c(=O)oc12
inactive: [10] 103 % of control | [11] 101 % of control | [12] 100 % of control

CC1(C)OCC(CO)O1 (stereo not drawn)
inactive: [13] 106 % of control | [14] 114 % of control | [15] 111 % of control

CN(C)CN1C(=O)S/C(=C2\C(=O)N(C)c3ccc(Br)cc32)C1=O
inactive: dose: 100.0 mg/kg/injection, schedule: Q01DX001 (ip), vehicle: Klucel (hydroxypropylcellulose) (HPC) 101 % of control | dose: 200.0 mg/kg/injection, schedule: Q01DX001 (ip), vehicle: Klucel (hydroxypropylcellulose) (HPC) 95 % of control | dose: 400.0 mg/kg/injection, schedule: Q01DX001 (ip), vehicle: Klucel (hydroxypropylcellulose) (HPC) 97 % of control

COc1ccc2c(c1)Sc1c(Cl)c3c(c(Cl)c1=N2)Sc1cc(OC)ccc1N=3
inactive: dose: 100.0 mg/kg/injection, schedule: Q04DX002 (ip), vehicle: saline with Tween-80 102 % of control | dose: 200.0 mg/kg/injection, schedule: Q04DX002 (ip), vehicle: saline with Tween-80 112 % of control | dose: 400.0 mg/kg/injection, schedule: Q04DX002 (ip), vehicle: saline with Tween-80 118 % of control

O=C(N/N=C\c1ccccc1O)c1cccc2ccccc12
inactive: [16] 99 % of control | [17] 99 % of control | [18] 102 % of control

COc1ccc([B-]23OCC[N+]2(CNC(=O)c2ccccc2O)CCO3)cc1 (stereo not drawn)
inactive: [16] 103 % of control | [17] 112 % of control | [18] 105 % of control

C/C(N)=N\O
inactive: [13] 94 % of control | [14] 114 % of control | [15] 104 % of control

NC(=O)c1nnn(Cc2cc(Cl)c(C(=O)c3ccc(Cl)cc3)c(Cl)c2)c1N
inactive: [19] 103 % of control | [20] 103 % of control | dose: 240.0 mg/kg/injection, schedule: Q01DX005 (ip), vehicle: Klucel (hydroxypropylcellulose) (HPC) 115 % of control | dose: 480.0 mg/kg/injection, schedule: Q01DX005 (ip), vehicle: Klucel (hydroxypropylcellulose) (HPC) 119 % of control

COC(=O)C(=C\c1nc2ccc([N+](=O)[O-])cc2s1)/C(C(=O)OC)=C1\CCCN1C
inactive: [1] 100 % of control | [2] 97 % of control | [3] 97 % of control

O=C1OC(=O)C2CC=CCC12 (stereo not drawn)
inactive: [7] 95 % of control | [8] 93 % of control | [9] 100 % of control

C/[N+]([O-])=N\Nc1ccccc1SCCSc1ccccc1N/N=[N+](\C)[O-]
inactive: [19] 91 % of control | [20] 89 % of control

CCCCNCCC(SSSC(CCNCCCC)c1ccc(Cl)cc1)c1ccc(Cl)cc1 (stereo not drawn)
inactive: [4] 100 % of control | [5] 100 % of control | [6] 90 % of control

CC(C)=CC(=O)O
inactive: [7] 99 % of control | [8] 101 % of control | [9] 100 % of control | dose: 400.0 mg/kg/injection, schedule: Q01DX009 (ip), vehicle: saline with Tween-80 90 % of control

OCCCOCCCO
inactive: [1] 109 % of control | [2] 101 % of control | [3] 114 % of control

NC(=N/C(=C/c1ccccc1)c1ccccc1)c1ccccc1
inactive: [10] 92 % of control | [11] 102 % of control

CC(C)(C)C1C=Nn2c(=O)n(-c3ccccc3)c(=O)n21 (stereo not drawn)
inactive: dose: 25.0 mg/kg/injection, schedule: Q04DX003 (ip), vehicle: other 91 % of control | dose: 100.0 mg/kg/injection, schedule: Q04DX003 (ip), vehicle: other 94 % of control | dose: 200.0 mg/kg/injection, schedule: Q04DX003 (ip), vehicle: other 98 % of control | dose: 400.0 mg/kg/injection, schedule: Q04DX003 (ip), vehicle: other 100 % of control

C=CCn1c(=O)n(C)c(=O)c2[nH]c(Cl)nc21
inactive: dose: 16.0 mg/kg/injection, schedule: Q01DX009 (ip), vehicle: Klucel (hydroxypropylcellulose) (HPC) 108 % of control | dose: 32.0 mg/kg/injection, schedule: Q01DX009 (ip), vehicle: Klucel (hydroxypropylcellulose) (HPC) 103 % of control | [21] 110 % of control | dose: 64.0 mg/kg/injection, schedule: Q01DX009 (ip), vehicle: Klucel (hydroxypropylcellulose) (HPC) 104 % of control | [22] 112 % of control

Nc1ccc(N(CCCl)CCN(CCCl)c2ccc(N)cc2)cc1
inactive: dose: 2.5 mg/kg/injection, schedule: Q01DX009 (ip), vehicle: saline 122 % of control | dose: 5.0 mg/kg/injection, schedule: Q01DX009 (ip), vehicle: saline 90 % of control | dose: 5.0 mg/kg/injection, schedule: Q04DX003 (ip), vehicle: saline with Tween-80 118 % of control
active: dose: 0.8 mg/kg/injection, schedule: Q01DX009 (ip), vehicle: saline sonified 176 % of control | dose: 1.2 mg/kg/injection, schedule: Q01DX009 (ip), vehicle: saline sonified 209 % of control | dose: 1.25 mg/kg/injection, schedule: Q01DX009 (ip), vehicle: saline 177 % of control

COC(=O)C1CO[C@@H](C(C)(C)C)N1C=O (stereo partly drawn)
inactive: dose: 60.0 mg/kg/injection, schedule: Q01DX005 (ip), vehicle: saline 104 % of control | dose: 120.0 mg/kg/injection, schedule: Q01DX005 (ip), vehicle: saline 110 % of control | dose: 240.0 mg/kg/injection, schedule: Q01DX005 (ip), vehicle: saline 101 % of control

CCCC(=O)C1C(c2ccccc2)CC(=O)C(CC)C1c1ccccc1 (stereo not drawn)
inactive: dose: 12.5 mg/kg/injection, schedule: Q01DX005 (ip), vehicle: saline with Tween-80 90 % of control | dose: 25.0 mg/kg/injection, schedule: Q01DX005 (ip), vehicle: saline with Tween-80 95 % of control | [10] 88 % of control and 90 % of control | [12] 88 % of control

COc1ccc(C2=NOP(c3ccccc3)(c3ccccc3)(c3ccccc3)C2)cc1
inactive: dose: 1.56 mg/kg/injection, schedule: Q01DX009 (ip), vehicle: water 102 % of control | dose: 3.13 mg/kg/injection, schedule: Q01DX009 (ip), vehicle: water 106 % of control | dose: 6.25 mg/kg/injection, schedule: Q01DX009 (ip), vehicle: water 90 % of control | dose: 12.5 mg/kg/injection, schedule: Q01DX009 (ip), vehicle: water 107 % of control | [23] 99 % of control | dose: 25.0 mg/kg/injection, schedule: Q01DX009 (ip), vehicle: water 104 % of control | [21] 105 % of control | [22] 101 % of control | dose: 200.0 mg/kg/injection, schedule: Q01DX009 (ip), vehicle: Klucel (hydroxypropylcellulose) (HPC) 101 % of control

CCOC(=O)Nc1ccc2nc(N3CCCCC3)sc2c1
inactive: [7] 96 % of control | [8] 90 % of control

CC(C)N(CCO)CCO
inactive: [1] 104 % of control | [2] 98 % of control | [3] 100 % of control

COc1ccc(CCN(C=O)CCc2ccc(OC)c(OC)c2)cc1OC
inactive: [23] 97 % of control | dose: 100.0 mg/kg/injection, schedule: Q01DX009 (ip), vehicle: other 109 % of control | dose: 200.0 mg/kg/injection, schedule: Q01DX009 (ip), vehicle: other 101 % of control | dose: 400.0 mg/kg/injection, schedule: Q01DX009 (ip), vehicle: other 103 % of control

O=C1OC(=O)c2c(Br)c(Br)c(Br)c(Br)c21
inactive: dose: 100.0 mg/kg/injection, schedule: Q04DX003 (ip), vehicle: saline 100 % of control | dose: 200.0 mg/kg/injection, schedule: Q04DX003 (ip), vehicle: saline 100 % of control | dose: 400.0 mg/kg/injection, schedule: Q04DX003 (ip), vehicle: saline 104 % of control
